Assay results taken from publication PMC11728683, “Colon-Targeted Poly(ADP-ribose) Polymerase Inhibitors Synergize Therapeutic Effects of Mesalazine Against Rat Colitis Induced by 2,4-Dinitrobenzenesulfonic Acid” (Pharmaceutics, 2024).
“Also recorded” adds a separate entry of the source. Blank lines part the entries; values can stand above or below the compound they belong to.

What was measured:
[1] = system: murine macrophage RAW264.7 cells challenged with LPS; test: LPS-mediated induction of iNOS and COX-2 in RAW264.7 cells (Western blot); format: cell-based; settings: pretreated 1 h with 5-ASA (20 mM), 3-AB (1 mM), 5-AIQ (10 μM), then LPS 24 h
Description: Tissue samples (0.2 g/mL) were homogenized in pre-chilled radioimmunoprecipitation assay buffer (50 mM Tris-HCl [pH 7.4], 1 mM EDTA, 0.7% Na deoxycholate, 1% NP-40, 150 mM NaCl, 0.3 μM aprotinin, 1 μM pepstatin, and 1 mM phenylmethylsulfonyl fluoride). The homogenates were centrifuged at 10,000× g at 4 °C for 10 min, followed by agitation on ice for 30 min. Whole and nuclear cell lysates were prepared as described previously. The protein concentrations in the lysates were determined using bicinchoninic acid (Thermo Fisher Scientific, Waltham, MA, USA) according to the manufacturer’s instructions. Cell and tissue lysates were separated by SDS-PAGE on 10% and 7.5% gels. Nrf2, HO-1, cyclooxygenase-2 (COX-2), and inducible nitric oxide synthase (iNOS) proteins were detected using the following antibodies: anti-Nrf2 (sc-365949, Santa Cruz Biotechnology, Dallas, TX, USA), anti-HO-1 (sc-136961, Santa Cruz Biotechnology), anti-COX-2 (sc-365374, Santa Cruz Biotechnology), anti-iNOS (NOS-2) antibody (sc-7271, Santa Cruz Biotechnology), and secondary antibodies corresponding to the primary antibodies (Santa Cruz Biotechnology). Protein bands were visualized using SuperSignal chemiluminescence substrate (Thermo Fisher Scientific). α-Tubulin were detected using antibodies specific to each protein (Santa Cruz Biotechnology) as loading controls. […]

[2] = Distribution coefficient (log D6.8), pH 6.8 isotonic phosphate buffer/n-octanol; format: physicochemical; settings: n-octanol/pH 6.8 isotonic phosphate buffer; 1-octanol/isotonic phosphate buffer (pH 6.8)
Description: Distribution coefficients (log D6.8) of the PARP inhibitors and their derivatives were measured using a pH 6.8 isotonic phosphate buffer/n-octanol system, as described in a previous paper.

PARP = system: PARP; set-up: method as in PMID 30196390, PMID 17235412; settings: cited from earlier work
[3] = Incubation in the cecal contents of rats (colonic activation); format: in vitro ADME, rat; settings: 1 mM, 10% cecal contents, under nitrogen
Source text: Male Sprague–Dawley rats (250–260 g) were euthanized using CO2 gas before a midline incision was made. The contents of the intestinal tract were collected from the small intestine and cecum obtained from each of three rats and were suspended in pH 6.8 isotonic phosphate buffer to prepare a 20% (w/v) suspension. To maintain anaerobic conditions in the cecum, the cecal contents were collected under a N2 atmosphere in an atmospheric bag (AtmosBag, Sigma, St. Louis, MO, USA). Derivatives of PARP inhibitors (2 mM) dissolved in pH 6.8 isotonic phosphate buffer (5 mL) were mixed with the cecal and small intestinal suspensions (5 mL) and then incubated at 37 °C. The cecal contents were incubated in nitrogen. At predetermined time intervals, a 0.5 mL portion of the mixture was transferred to a microtube and centrifuged at 10,000× g at 4 °C for 10 min. The supernatants (0.1 mL) were mixed with MeOH (0.9 mL), followed by centrifugation at 10,000× g at 4 °C for 7 min. The supernatants were filtered through a membrane filter (0.45 μm), and the concentrations of PARP inhibitors in the filtrates (20 μL) were analyzed using HPLC.

Caco-2 cell monolayer = test: Cell permeability via Caco-2 cell monolayer; format: in vitro ADME; settings: 500 µM apical, concentration determined in basolateral compartment
Description: Caco-2 cells (4 × 10^5 per insert) were seeded and grown in Transwell 6-well inserts with a pore size of 0.4 μm (SPL Inc., Houston, TX, USA) until the transepithelial electrical resistance value (EMD Millipore, Billerica, MA, USA) reached 2000 Ω.cm^2. After removing the culture medium (DMEM) containing 1% penicillin/streptomycin from the basolateral and apical (insert) compartments, the apical compartment was filled with DMEM without phenol red (2 mL) containing PARP inhibitors and their derivatives (500 μM), whereas the basolateral compartment was filled with DMEM without phenol red (3 mL). At appropriate time intervals, the drug concentration in the basolateral compartment was determined by HPLC.

[4] = Drug concentration in the cecum after oral administration; format: in vivo, rat; settings: rats
Description: Male Sprague–Dawley rats were fasted for 24 h but had access to water. 5-AIQ (10 mg/kg), AQSA-Glu (equivalent to 10 mg/kg 5-AIQ), 3-AB (17 mg/kg), and ABSA (equivalent to 17 mg/kg 3-AB) in PBS (1.0 mL) were administered to the rats by oral gavage. Blood samples were collected via cardiac puncture at 2, 4, and 8 h after the oral gavage. The blood samples were centrifuged at 10,000× g at 4 °C for 10 min to obtain the plasma (0.3 mL). The plasma (0.1 mL) was transferred to a centrifuge tube and mixed with methanol (0.9 mL). The supernatants were filtered through a membrane filter (0.45 μm), and then the filtrate (20.0 μL) was subjected to HPLC analysis. To determine drug concentrations in the cecum, cecal contents were collected at 2, 4, and 8 h after oral gavage and mixed with pH 6.8 isotonic phosphate buffer to make a 10% suspension, which was subjected to centrifugation at 10,000× g for 10 min at 4 °C. The supernatants (0.1 mL) were transferred to fresh microtubes, followed by the addition of MeOH (0.9 mL). After centrifugation at 10,000× g at 4 °C for 7 min and subsequent filtration through a membrane filter (0.45 μm), the concentrations of PARP inhibitors in the filtrates (20 μL) were analyzed using HPLC.

DNBS-induced rat colitis = DNBS-induced rat colitis model (anticolitic effects); format: in vivo
Description: DNBS-induced colitis was produced in rats as previously described. Two independent animal experiments were performed to evaluate the anticolitic effects of the drugs. For the first experiment, the rats were divided into the following five treatment groups (n = 5 per group): group 1 (normal group), oral gavage of 1.0 mL of PBS; group 2 (colitis group), oral gavage of 1.0 mL of PBS; group 3 (5-AIQ-treated colitis group), oral gavage of 5-AIQ (5 mg/kg) in 1.0 mL of PBS; group 4 [AQSA-Glu-treated colitis group (L)], oral gavage of AQSA-Glu (7.5 mg/kg, equivalent to 2.5 mg/kg of 5-AIQ) in 1.0 mL of PBS; and group 5 [AQSA-Glu-treated colitis group (H)], oral gavage of AQSA-Glu (15 mg/kg, equivalent to 5 mg/kg of 5-AIQ) in 1.0 mL of PBS. For the second experiment, the rats were divided into the following six treatment groups (n = 5 per group): group 1 (normal group), oral gavage of 1.0 mL of PBS; group 2 (colitis group), oral gavage of 1.0 mL of PBS; group 3 (SSZ-treated colitis group), oral gavage of SSZ (50 mg/kg) in 1.0 mL of PBS; group 4 (AQSA-Glu-treated colitis group), oral gavage of AQSA-Glu (15 mg/kg) in 1.0 mL of PBS; group 5 (mixture of AQSA-Glu + OSZ-treated colitis group), oral gavage of mixture of AQSA-Glu (15 mg/kg) and OSZ (19 mg/kg, half-equimolar to 50 mg/kg of SSZ) in 1.0 mL of PBS; and group 6 (ABSA-treated colitis group), oral gavage of ABSA (36 mg/kg, equivalent to 50 mg/kg of SSZ) in 1.0 mL of PBS. Three days after the induction of inflammation, each drug was orally administered to rats once daily, and the anticolitic effects were assessed 24 h after the sixth medication. The animal experiment scheme is shown in Supplementary Data S1. The colonic damage score was calculated using a scoring system modified from previously reported criteria. The modified scoring system is shown in Supplementary Data S2. Four independent observers who were blinded to the treatment conditions scored colonic damage according to the scoring system. Myeloperoxidase (MPO) activity in the distal colon (4 cm) was measured as described previously.
Tissue samples (0.2 g/mL) were homogenized in pre-chilled radioimmunoprecipitation assay buffer (50 mM Tris-HCl [pH 7.4], 1 mM EDTA, 0.7% Na deoxycholate, 1% NP-40, 150 mM NaCl, 0.3 μM aprotinin, 1 μM pepstatin, and 1 mM phenylmethylsulfonyl fluoride). The homogenates were centrifuged at 10,000× g at 4 °C for 10 min, followed by agitation on ice for 30 min. Whole and nuclear cell lysates were prepared as described previously. The protein concentrations in the lysates were determined using bicinchoninic acid (Thermo Fisher Scientific, Waltham, MA, USA) according to the manufacturer’s instructions.
Cell and tissue lysates were separated by SDS-PAGE on 10% and 7.5% gels. Nrf2, HO-1, cyclooxygenase-2 (COX-2), and inducible nitric oxide synthase (iNOS) proteins were detected using the following antibodies: anti-Nrf2 (sc-365949, Santa Cruz Biotechnology, Dallas, TX, USA), anti-HO-1 (sc-136961, Santa Cruz Biotechnology), anti-COX-2 (sc-365374, Santa Cruz Biotechnology), anti-iNOS (NOS-2) antibody (sc-7271, Santa Cruz Biotechnology), and secondary antibodies corresponding to the primary antibodies (Santa Cruz Biotechnology). Protein bands were visualized using SuperSignal chemiluminescence substrate (Thermo Fisher Scientific). α-Tubulin were detected using antibodies specific to each protein (Santa Cruz Biotechnology) as loading controls. Western blot images were quantified using Image Lab software (version 5.2 build 14; Bio-Rad, Hercules, CA, USA). The means of the quantified values are presented under each Western blot (n = 3 for cell experiments and n = 5 for animal experiments).
The levels of the inflammatory cytokine-induced neutrophil chemoattractant-3 (CINC-3) in the inflamed distal colon were determined using a CINC-3 ELISA kit (R&D Systems, Minneapolis, MN, USA). […]

[5] = set-up: method as in PMID 31743034; settings: SSZ at an effective dose; cited from earlier work
[6] = second experiment: SSZ 50 mg/kg, AQSA-Glu 15 mg/kg, AQSA-Glu 15 mg/kg + OSZ 19 mg/kg, ABSA 36 mg/kg, oral once per day, six treatments

Compound: Nc1ccc(O)c(C(=O)O)c1 [5-ASA, 5-aminosalicylic acid]
levels of iNOS and COX-2 proteins [1]: reduced the levels of iNOS and COX-2 proteins

Compound: Nc1cccc2cnccc12 [5-AIQ, 5-aminoisoquinoline, reference compound]
logD [2]: 3.16
concentrations eliciting significant PARP inhibition (PARP): micromolar

Compound: NC(=O)c1cccc(N)c1 [3-AB, 3-aminobenzamide, reference compound]
logD [2]: 0.33
concentrations eliciting significant PARP inhibition (PARP): millimolar

Compound: O=C(O)c1cc(/N=N/c2ccc(S(=O)(=O)Nc3ccccn3)cc2)ccc1O [SSZ, Sulfasalazine]
colonic concentrations of 5-ASA after oral administration [5]: millimolar levels

Now from value to compound, other results behind:

logD [2]: -1.07
transport via the Caco-2 cell monolayer (cell permeability) (Caco-2 cell monolayer): less cell-permeable than 3-AB
amount of 3-AB delivered to the cecum ([4]; ABSA 36 mg/kg (equivalent to 17 mg/kg of 3-AB) vs 3-AB 17 mg/kg, 2, 4, 8 h): much greater amount
amount and temporal pattern of 5-ASA accumulation in the cecum ([4]; ABSA 36 mg/kg vs equimolar SSZ 50 mg/kg, 2, 4, 8 h): comparable
Compound: NC(=O)c1cccc(N=Nc2ccc(O)c(C(=O)O)c2)c1 [ABSA, 5-[(3-carbamoylphenyl)diazenyl]-2-hydroxybenzoic acid]
conversion rate in cecal contents [3]: slightly higher than that of the derivatives of 5-AIQ
effectiveness against rat colitis (anticolitic effects) (DNBS-induced rat colitis; second experiment, same doses): more effective against rat colitis than SSZ and AQSA-Glu
colonic damage and mucosal recovery (DNBS-induced rat colitis; [6]): greater effectiveness in healing colonic injury, including mucosa, than the other single-treatment groups; also recorded: as effective against colonic damage as the mixture
inflammatory indices: MPO activity, CINC-3, iNOS and COX-2 in inflamed colon (DNBS-induced rat colitis; [6]): greater; also recorded: suppressed to a greater extent by ABSA than by SSZ or AQSA

logD [2]: -1.83
amount of 5-AIQ delivered to the cecum ([4]; AQSA-Glu 29.3 mg/kg (equivalent to 10 mg/kg of 5-AIQ) vs 5-AIQ 10.0 mg/kg, 2, 4, 8 h): much greater amount
Compound: O=C(O)CC[C@H](NC(=O)c1cc(/N=N/c2cccc3cnccc23)ccc1O)C(=O)O [AQSA-Glu]
mucosal recovery (H&E staining of inflamed distal colon) (DNBS-induced rat colitis; first experiment, oral once per day for 6 days): greater mucosal recovery
colonic damage (colonic damage score) (DNBS-induced rat colitis; first experiment: AQSA-Glu 7.5 and 15 mg/kg (equivalent to 2.5 and 5 mg/kg of 5-AIQ) vs 5-AIQ 5 mg/kg, oral once per day for 6 days): substantially improved colonic damage in a dose-dependent manner and were more effective in ameliorating colonic damage than 5-AIQ
MPO activity and proinflammatory mediators (CINC-3, iNOS, COX-2) in inflamed distal colon (DNBS-induced rat colitis; first experiment: AQSA-Glu low and high doses vs 5-AIQ 5 mg/kg, oral once per day for 6 days): more effective in suppressing MPO activity and reducing proinflammatory mediators in the inflamed distal colon than 5-AIQ
effectiveness against rat colitis (DNBS-induced rat colitis; first experiment: AQSA-Glu low dose (2.5 mg/kg as 5-AIQ) vs 5-AIQ (5 mg/kg)): more effective against rat colitis than 5-AIQ

logD [2]: 0.31
Compound: O=C(O)c1cc(N=Nc2cccc3cnccc23)ccc1O [AQSA, 2-hydroxy-5-(isoquinolin-5-yldiazenyl)benzoic acid]

logD [2]: -1.77
Compound: O=C(O)C[C@H](NC(=O)c1cc(/N=N/c2cccc3cnccc23)ccc1O)C(=O)O [AQSA-Asp]
